Target: T1, hERG channel (Homo sapiens, UniProt Q12809)
T1 construct: expressed in transfected cells
Test: hERG electrophysiology, automated whole-cell patch clamp (Patchliner)
Assay type: cell-based
Details: CHO-K1 cells stably expressing hERG; whole cell current inhibition; read-out: hERG IC50
Protocol: (§1) All compounds were dissolved in DMSO at 30 mM.
The pulse frequency was 0.3 Hz.
Data were sampled at 10 kHz without filtering.

T1 sequence (Q12809 whole entry): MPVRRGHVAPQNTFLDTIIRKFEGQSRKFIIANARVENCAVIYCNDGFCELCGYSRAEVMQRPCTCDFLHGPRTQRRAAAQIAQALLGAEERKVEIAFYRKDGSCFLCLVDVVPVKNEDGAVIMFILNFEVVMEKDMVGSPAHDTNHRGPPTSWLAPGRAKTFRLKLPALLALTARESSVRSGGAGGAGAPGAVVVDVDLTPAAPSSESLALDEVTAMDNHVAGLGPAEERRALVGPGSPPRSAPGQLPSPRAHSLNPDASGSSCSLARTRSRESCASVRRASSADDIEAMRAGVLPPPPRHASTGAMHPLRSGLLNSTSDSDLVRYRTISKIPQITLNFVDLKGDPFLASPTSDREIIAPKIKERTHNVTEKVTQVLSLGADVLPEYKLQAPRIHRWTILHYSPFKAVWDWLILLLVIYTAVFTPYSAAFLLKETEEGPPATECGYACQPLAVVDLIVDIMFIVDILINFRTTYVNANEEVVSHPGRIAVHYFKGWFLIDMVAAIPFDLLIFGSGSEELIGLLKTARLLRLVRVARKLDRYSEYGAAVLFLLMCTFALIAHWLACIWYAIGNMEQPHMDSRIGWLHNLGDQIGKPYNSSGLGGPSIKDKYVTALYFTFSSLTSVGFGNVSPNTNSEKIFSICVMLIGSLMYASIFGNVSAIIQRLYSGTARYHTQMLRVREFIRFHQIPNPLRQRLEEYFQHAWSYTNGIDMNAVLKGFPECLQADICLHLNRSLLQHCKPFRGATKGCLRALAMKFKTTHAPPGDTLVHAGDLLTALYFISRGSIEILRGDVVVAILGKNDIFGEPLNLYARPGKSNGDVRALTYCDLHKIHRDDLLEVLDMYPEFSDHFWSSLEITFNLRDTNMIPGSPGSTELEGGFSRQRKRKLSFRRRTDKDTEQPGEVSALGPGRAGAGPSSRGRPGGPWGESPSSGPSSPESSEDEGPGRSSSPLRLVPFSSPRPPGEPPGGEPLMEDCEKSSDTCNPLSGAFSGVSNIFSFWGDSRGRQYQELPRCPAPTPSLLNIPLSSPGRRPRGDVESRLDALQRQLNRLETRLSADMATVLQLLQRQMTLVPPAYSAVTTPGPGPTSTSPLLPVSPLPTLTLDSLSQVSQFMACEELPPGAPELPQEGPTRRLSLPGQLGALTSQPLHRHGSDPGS

Compound	IC50 [µM]
O=C(N1CCOCC1)N1CCN(Cc2cc(Cl)c(Cl)cc2O)CC1 [Compound 58, (4-(4,5-dichloro-2-hydroxybenzyl)piperazin-1-yl)(morpholino) methanone]	< 30
OCC1CCN(Cc2cc(Br)c(Br)cc2O)CC1 [Compound 60, 4,5-dibromo-2-((4-(hydroxymethyl)piperidin-1-yl)methyl)phenol]	< 30
CC(=O)NC1(CO)CCN(Cc2cc(Cl)c(Cl)cc2O)CC1 [Compound 12, N-[1-[(4,5-dichloro-2-hydroxyphenyl)methyl]-4-(hydroxymethyl)piperidin-4-yl]acetamide]	> 30
OCC1CCCN(Cc2cc(Cl)c(Cl)cc2O)CC1 (stereo not drawn) [Compound 27, 4,5-dichloro-2-[[4-(hydroxymethyl)azepan-1-yl]methyl]phenol]	< 30
N#CC1(CO)CCN(Cc2cc(Cl)c(Cl)cc2O)CC1 [Compound 54, 1-[(4,5-dichloro-2-hydroxyphenyl)methyl]-4-(hydroxymethyl)piperidine-4-carbonitrile]	< 30
NCC1(CO)CCN(Cc2cc(Cl)c(Cl)cc2O)CC1 [Compound 5, 2-[[4-(aminomethyl)-4-(hydroxymethyl)piperidin-1-yl]methyl]-4,5-dichlorophenol]	< 30

Target: T2, Kv1.3 potassium channel (Homo sapiens, UniProt P22001)
T2 construct: expressed in transfected cells
T2 sequence (P22001 whole entry): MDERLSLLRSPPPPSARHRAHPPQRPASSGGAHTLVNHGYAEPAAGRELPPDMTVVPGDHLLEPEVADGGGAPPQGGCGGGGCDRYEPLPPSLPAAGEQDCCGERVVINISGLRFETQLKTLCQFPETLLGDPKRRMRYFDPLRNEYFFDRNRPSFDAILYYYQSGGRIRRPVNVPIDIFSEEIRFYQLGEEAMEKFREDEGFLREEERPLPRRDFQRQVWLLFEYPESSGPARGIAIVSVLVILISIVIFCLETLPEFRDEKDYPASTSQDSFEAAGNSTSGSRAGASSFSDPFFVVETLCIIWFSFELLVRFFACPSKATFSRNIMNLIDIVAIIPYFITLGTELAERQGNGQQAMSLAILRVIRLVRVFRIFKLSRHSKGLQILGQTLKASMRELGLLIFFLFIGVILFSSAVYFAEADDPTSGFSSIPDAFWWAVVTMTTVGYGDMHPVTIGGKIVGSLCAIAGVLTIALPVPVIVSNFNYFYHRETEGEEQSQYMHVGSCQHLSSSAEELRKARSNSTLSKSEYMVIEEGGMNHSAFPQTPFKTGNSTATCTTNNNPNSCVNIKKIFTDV
Test: Kv1.3 potassium channel blocker activity, automated whole-cell patch clamp (Patchliner)
Assay type: cell-based
Details: CHO-K1 cells stably expressing Kv1.3; whole cell current inhibition; read-out: Kvl.3 IC50
Protocol: This assay is used to evaluate the disclosed compounds' activities as Kv1.3 potassium channel blockers.
CHO-K1 cells stably expressing Kv1.3 were grown in DMEM containing 10% heat-inactivated FBS, 1 mM Sodium Pyruvate, 2 mM L-Glutamine and G418 (500 μg/ml).
as §1
The currents were evoked by applying 100 ms depolarizing pulses from −90 mV (holding potential) to +40 mV were applied with 0.1 Hz frequency. […] 10 second breaks were used between pulse trains (see Table A below).
Data were sampled at 10 kHz without filtering. Passive leak currents were subtracted online using a P/4 procedure (HEKA Elektronik Dr. Schulze GmbH). […] Total compound incubation time before the next pulse train was not longer than 10 seconds. Peak current inhibition was observed during compound equilibration.

Compound	IC50 [µM]
O=C(N1CCOCC1)N1CCN(Cc2cc(Cl)c(Cl)cc2O)CC1 [Compound 58, (4-(4,5-dichloro-2-hydroxybenzyl)piperazin-1-yl)(morpholino) methanone]	< 10
OCC1CCN(Cc2cc(Br)c(Br)cc2O)CC1 [Compound 60, 4,5-dibromo-2-((4-(hydroxymethyl)piperidin-1-yl)methyl)phenol]	< 1
OC[C@@H]1CCN(Cc2cc(Cl)c(Cl)cc2O)[C@H](c2ccccc2)C1 (relative stereo) [Compound 10, 4,5-dichloro-2-(((2S,4R)-rel-4-(hydroxymethyl)-2-phenylpiperidin-1-yl)methyl)phenol]	< 10
CC(=O)NC1(CO)CCN(Cc2cc(Cl)c(Cl)cc2O)CC1 [Compound 12, N-[1-[(4,5-dichloro-2-hydroxyphenyl)methyl]-4-(hydroxymethyl)piperidin-4-yl]acetamide]	< 1
OCC1CCCN(Cc2cc(Cl)c(Cl)cc2O)CC1 (stereo not drawn) [Compound 27, 4,5-dichloro-2-[[4-(hydroxymethyl)azepan-1-yl]methyl]phenol]	< 1
N#CC1(CO)CCN(Cc2cc(Cl)c(Cl)cc2O)CC1 [Compound 54, 1-[(4,5-dichloro-2-hydroxyphenyl)methyl]-4-(hydroxymethyl)piperidine-4-carbonitrile]	< 10
NCC1(CO)CCN(Cc2cc(Cl)c(Cl)cc2O)CC1 [Compound 5, 2-[[4-(aminomethyl)-4-(hydroxymethyl)piperidin-1-yl]methyl]-4,5-dichlorophenol]	< 1
NCC(c1cc(Cl)c(Cl)cc1O)N1CCC(CO)CC1 (stereo not drawn) [Compound 4, 2-[2-amino-1-[4-(hydroxymethyl)piperidin-1-yl]ethyl]-4,5-dichlorophenol]	< 10
OC[C@@H]1CCN(Cc2cc(Cl)c(Cl)cc2O)[C@@H](c2ccccc2)C1 (relative stereo) [Compound 11, 4,5-dichloro-2-(((2R,4R)-rel-4-(hydroxymethyl)-2-phenylpiperidin-1-yl)methyl)phenol]	< 10
Oc1cc(Cl)c(Cl)cc1CN1CCC2(CC1)OCCO2 [Compound 35, 4,5-dichloro-2-[1,4-dioxa-8-azaspiro[4.5]decan-8-ylmethyl]phenol trifluoroacetic acid]	< 10
OCC1CN(Cc2cc(Cl)c(Cl)cc2O)CCN1 (stereo not drawn) [Compound 47, 4,5-dichloro-2-((3-(hydroxymethyl)piperazin-1-yl)methyl)phenol]	< 10
Oc1cc(Cl)c(Cl)cc1CN1CCC(n2cnnc2)CC1 [Compound 38, 4,5-dichloro-2-[[4-(4H-1,2,4-triazol-4-yl)piperidin-1-yl]methyl]phenol]	< 10
OCC1CCCCN1Cc1cc(Cl)c(Cl)cc1O (stereo not drawn) [Compound 34, 4,5-dichloro-2-[[2-(hydroxymethyl)piperidin-1-yl]methyl]phenol]	< 10
C=CC(=O)NCC1(CO)CCN(Cc2cc(Cl)c(Cl)cc2O)CC1 [Compound 7, N-([1-[(4,5-dichloro-2-hydroxyphenyl)methyl]-4-(hydroxymethyl)piperidin-4-yl]methyl)prop-2-enamide]	< 1
CS(=O)(=O)C1CCN(Cc2cc(Cl)c(Cl)cc2O)CC1 [Compound 41, 4,5-dichloro-2-((4-(methylsulfonyl)piperidin-1-yl)methyl)phenol]	< 10
C[C@@H]1C[C@@H](CO)CCN1Cc1cc(Cl)c(Cl)cc1O (relative stereo) [Compound 24, 4,5-dichloro-2-(((2R,4S)-rel-4-(hydroxymethyl)-2-methylpiperidin-1-yl)methyl)phenol]	< 10
O=C(NCC1(CO)CCN(Cc2cc(Cl)c(Cl)cc2O)CC1)C(F)(F)F [Compound 13, N-([1-[(4,5-dichloro-2-hydroxyphenyl)methyl]-4-(hydroxymethyl)piperidin-4-yl]methyl)-2,2,2-trifluoroacetamide]	< 1

Compound	IC50 [µM]
CC(c1cc(Cl)c(Cl)cc1O)N1CCC(CO)CC1 (stereo not drawn) [Compound 46, 4,5-dichloro-2-[1-[4-(hydroxymethyl)piperidin-1-yl]ethyl]phenol]	< 10
Oc1cc(Cl)c(Cl)cc1CN1CCC(O)(O)CC1 [Compound 37, 1-(4,5-dichloro-2-hydroxybenzyl)piperidine-4,4-diol trifluoroacetic acid]	< 10
OCC1CCN(C(CO)c2cc(Cl)c(Cl)cc2O)CC1 (stereo not drawn) [Compound 15, 4,5-dichloro-2-[2-hydroxy-1-[4-(hydroxymethyl)piperidin-1-yl]ethyl]phenol]	< 10
O=C(N1CCCC1)C1(CO)CCN(Cc2cc(Cl)c(Cl)cc2O)CC1 [Compound 6, 4,5-dichloro-2-[[4-(hydroxymethyl)-4-[(pyrrolidin-1-yl)carbonyl]piperidin-1-yl]methyl]phenol]	< 10
O=C(O)CC1CCN(Cc2cc(Cl)c(Cl)cc2O)CC1 [Compound 28, 2-(1-(4,5-dichloro-2-hydroxybenzyl)piperidin-4-yl)acetic acid]	< 10
OCC1(F)CCN(Cc2cc(Cl)c(Cl)cc2O)CC1 [Compound 31, 4,5-dichloro-2-[[4-fluoro-4-(hydroxymethyl)piperidin-l-yl]methyl]phenol]	< 10
Cc1cc(O)c(CN2CCC(CO)CC2)cc1C [Compound 16, 2-[[4-(hydroxymethyl)piperidin-1-yl]methyl]-4,5-dimethylphenol]	< 10
O=C1CCOC12CCN(Cc1cc(Cl)c(Cl)cc1O)CC2 [Compound 33, 8-[(4,5-dichloro-2-hydroxyphenyl)methyl]-1-oxa-8-azaspiro[4.5]decan-4-one]	< 10
COC(=O)C1CC(CO)CCN1Cc1cc(Cl)c(Cl)cc1O (stereo not drawn) [Compound 1, methyl 1-[(4,5-dichloro-2-hydroxyphenyl)methyl]-4-(hydroxymethyl)piperidine-2-carboxylate]	< 10
CC(=O)NCC1(O)CCN(Cc2cc(Cl)c(Cl)cc2O)CC1 [Compound 8, N-([1-[(4,5-dichloro-2-hydroxyphenyl)methyl]-4-hydroxypiperidin-4-yl]methyl)acetamide]	< 10
Oc1cc(Cl)c(Cl)cc1CN1CCn2cnnc2C1 [Compound 43, 4,5-dichloro-2-[5H,6H,7H,8H-[1,2,4]triazolo[4,3-a]pyrazin-7-ylmethyl]phenol]	< 10
OCC1CCN(Cc2cc(Cl)c(Cl)cc2O)C(CO)C1 (stereo not drawn) [Compound 2, (1-(4,5-dichloro-2-hydroxybenzyl)piperidine-2,4-diyl)dimethanol]	< 10
O=C1CCC2(CCN1)CCN(Cc1cc(Cl)c(Cl)cc1O)CC2 [Compound 59, 3-(4,5-dichloro-2-hydroxybenzyl)-3,9-diazaspiro[5.6]dodecan-10-one]	< 10
Cc1cc(CN2CCC(CO)CC2)c(O)cc1Cl [Compound 17, 5-chloro-2-[[4-(hydroxymethyl)piperidin-1-yl]methyl]-4-methylphenol]	< 10
CC(C)CC(c1cc(Cl)c(Cl)cc1O)N1CCC(CO)CC1 (stereo not drawn) [Compound 23, 4,5-dichloro-2-[1-[4-(hydroxymethyl)piperidin-1-yl]-3-methylbutyl]phenol]	< 10
OC[C@@H]1[C@H]2CN(Cc3cc(Cl)c(Cl)cc3O)C[C@@H]12 [Compound 36, 4,5-dichloro-2-(((1R,5S,6R)-6-(hydroxymethyl)-3-azabicyclo[3.1.0]hexan-3-yl)methyl)phenol]	< 10

Source: patent publication US20220411367A1, “ARYLMETHYLENE HETEROCYCLIC COMPOUNDS AS KV1.3 POTASSIUM SHAKER CHANNEL BLOCKERS” (D. E. Shaw Research, LLC, priority 2019, published 2022)
